Assays:
α4β2 nAChRs [1] = molecular target: T1, α4β2 nAChRs (Mus musculus, UniProt O70174+Q9ERK7); conditions: α4:β2 cDNA ratio 1:1, exposed to nicotine, N2a cells
Procedure: (§1) In the experimental procedures illustrated in the present disclosure N2a cells were cultured at 37° C. in 95% air, 5% CO2 in medium composed of 44.5% DMEM, 44.5% OptiMEM1, 5% FBS, 100 I.U./ml penicillin and 100 μg/ml streptomycin. For all experiments, cells were plated onto poly-d-lysine coated 35 mm culture dishes with 14 mm glass bottoms. Transfections were performed using a modification of the manufacturer's Lipofectamine and Plus reagent protocol, resulting in non-saturated expression levels of nAChRs (Imoukhuede et al., 2009; Moss et al., 2009; Son et al., 2009). Nicotine at 1 μM final concentration was added to the appropriate dishes (nicotine was replenished with each media change).

WT α4β2 nAChRs = WT α4β2 nAChRs (Mus musculus, UniProt O70174+Q9ERK7)
Procedure: as §1
(§2) N2a cells were visualized at room temperature in extracellular buffer, 48 h after transfection. A series of lambda stack X-Y images were collected with the Eclipse C1si laser scanning confocal microscope according to procedures exemplified in Example 5. Dequenching of CFP fluorescence during incremental photobleaching of YFP was performed and analyzed as previously described (Nashmi et al., 2003; Drenan et al., 2008). FRET efficiency (E) was calculated according to (Equation 1).
(§3) IDA represents the normalized fluorescence intensity of the donor (100%) in the presence of non-bleached acceptor. ID represents the normalized fluorescence intensity of the donor following 100% photobleach of the acceptor. The ID value was extrapolated from a scatter plot of the percentage increase of donor intensity versus the percentage decrease of acceptor intensity for each cell (Nashmi et al., 2003).
(§4) A series of experiments were carried out with WT nAChR and ADFLE mutated nAChR were performed using image acquisition by FRET acceptor photobleach to detect nAChR stoichiometry before and after contact with nicotine.

α4β2 V287L nAChR [2] = molecular target: T2, α4β2 V287L nAChR (Mus musculus, UniProt O70174+Q9ERK7, V287L)
Procedure: as §1, §2, §3, §4

α4 S248F β2 nAChR = α4 S248F β2 nAChR (Mus musculus, UniProt O70174+Q9ERK7, S282F); conditions: α4 subunits carrying S248F and XFP, nicotine 1 μM, 48 h
From the text: (§5) Live cells were imaged using the Eclipse C1si laser scanning confocal microscope according to procedures exemplified in Example 5. Full emission spectra images are acquired in 5 nm bins between 450 nm and 610 nm, linearly unmixed using reference spectra from samples expressing solely the donor- or acceptor-tagged fusion constructs to unambiguously separate the donor and acceptor signal from each pixel of the spectral images.
(§6) Live cells are imaged using the Eclipse C1si laser scanning confocal microscope. Full emission spectra images are acquired in 5 nm bins between 450 nm and 610 nm, linearly unmixed using reference spectra from samples expressing solely the donor- or acceptor-tagged fusion constructs to unambiguously separate the donor and acceptor signal from each pixel of the spectral images. Transfections of cells expressing only the donor- or acceptor-tagged fusion protein are performed for every imaging session to control for pixel saturation and spectral bleedthrough (SBT). Where appropriate, non-fluorescent subunit cDNAs are included in the transfection to ensure the faithful expression and subcellular localization of the single fluorescent species. Control samples expressing only the donor-fused constructs are imaged with the appropriate laser line and unmixed with acceptor and donor emission spectra. The unmixed acceptor images are termed the FRETd channel, and the fluorescence intensity of each pixel is termed (IFRETd). The donor fluorophore images are the “Donor” channel and pixel intensities are described by Idonor. A montage of all the FRETd channel images and a second montage of all the Donor channel images are assembled and compiled into an image stack called the “Donor SBT stack” in the order FRETd channel, Donor channel.
(§7) Two spectral images of each cell expressing only the acceptor-fused constructs are acquired, the first excited by the donor specific laser line and the second with the acceptor specific laser line. The acceptor fluorophore signal is unmixed from each image.

α4β2 V287L nAChR [3] = molecular target: T2, α4β2 V287L nAChR; conditions: 1 μM nicotine for 48 h
From the text: as §5, §6, §7

ADNFLE α4β2 receptors = test system: ADNFLE α4β2 receptors
Procedure: The data on comparative stoichiometry from acceptor photobleach FRET, pixel-based FRET, and FIR measurements obtained from the experiments exemplified in the above examples and in the related figures can be summarized. In particular data gathered for the various subunit transfection ratios, various mutants, and various labeling strategies were analyzed by the relation in FIG. 3D or by Equations 13 and 14, as appropriate.
The effects of nicotine can also be summarized; in each case, the experiment compared incubation vs. saline.

α4β2 nAChRs [4] = molecular target: T1, α4β2 nAChRs
Procedure: as §6, §7

α4β2 receptors = α4β2 receptors (Mus musculus, UniProt O70174+Q9ERK7)
From the text: Cells were transfected with membrane-targeted mCherry, α4GFP, and unlabeled β2. Left panels, mCherry; middle panels, α4GFP; right panels, overlay. […] Scale bars, 5 μm.
All results from microscopy analysis will be correlated to receptor function using whole cell electrophysiology.

α4β2 nAChRs [5] = molecular target: α4β2 nAChRs (Homo sapiens, UniProt P17787+P43681); conditions: α4:β2 cDNA ratio 1:1, nicotine; Nelson et al., 2003; cited from earlier work
Chain of α4β2 nAChRs (Homo sapiens, UniProt P17787+P43681) (P43681 29-627 limits assumed): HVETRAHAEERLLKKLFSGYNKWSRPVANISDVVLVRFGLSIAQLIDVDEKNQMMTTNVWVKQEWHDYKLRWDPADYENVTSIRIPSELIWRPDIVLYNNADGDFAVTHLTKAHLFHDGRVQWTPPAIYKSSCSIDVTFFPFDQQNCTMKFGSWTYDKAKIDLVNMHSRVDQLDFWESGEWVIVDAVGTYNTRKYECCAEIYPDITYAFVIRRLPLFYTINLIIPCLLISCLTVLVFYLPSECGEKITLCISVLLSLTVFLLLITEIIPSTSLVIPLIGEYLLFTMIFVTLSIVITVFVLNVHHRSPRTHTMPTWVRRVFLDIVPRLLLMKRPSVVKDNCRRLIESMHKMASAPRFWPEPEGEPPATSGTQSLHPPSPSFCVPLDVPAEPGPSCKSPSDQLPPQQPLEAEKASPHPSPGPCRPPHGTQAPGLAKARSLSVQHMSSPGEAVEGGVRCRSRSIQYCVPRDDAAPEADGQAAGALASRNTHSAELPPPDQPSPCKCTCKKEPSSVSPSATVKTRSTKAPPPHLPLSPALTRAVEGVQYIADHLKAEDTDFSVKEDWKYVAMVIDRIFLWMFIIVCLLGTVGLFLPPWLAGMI
Chain of α4β2 nAChRs (Homo sapiens, UniProt P17787+P43681) (P17787 26-502): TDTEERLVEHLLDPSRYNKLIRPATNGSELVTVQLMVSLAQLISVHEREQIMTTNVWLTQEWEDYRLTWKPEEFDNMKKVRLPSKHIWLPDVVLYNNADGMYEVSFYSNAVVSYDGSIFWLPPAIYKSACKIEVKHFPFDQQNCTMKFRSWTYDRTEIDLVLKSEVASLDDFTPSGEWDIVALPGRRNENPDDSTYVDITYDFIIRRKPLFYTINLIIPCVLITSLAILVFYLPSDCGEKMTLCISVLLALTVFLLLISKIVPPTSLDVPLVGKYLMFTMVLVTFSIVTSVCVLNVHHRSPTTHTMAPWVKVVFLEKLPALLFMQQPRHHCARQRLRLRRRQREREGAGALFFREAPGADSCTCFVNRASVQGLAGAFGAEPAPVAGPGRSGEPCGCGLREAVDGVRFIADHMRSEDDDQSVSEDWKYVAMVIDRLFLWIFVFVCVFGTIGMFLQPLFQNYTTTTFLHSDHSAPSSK

T1 sequence (O70174 31-629): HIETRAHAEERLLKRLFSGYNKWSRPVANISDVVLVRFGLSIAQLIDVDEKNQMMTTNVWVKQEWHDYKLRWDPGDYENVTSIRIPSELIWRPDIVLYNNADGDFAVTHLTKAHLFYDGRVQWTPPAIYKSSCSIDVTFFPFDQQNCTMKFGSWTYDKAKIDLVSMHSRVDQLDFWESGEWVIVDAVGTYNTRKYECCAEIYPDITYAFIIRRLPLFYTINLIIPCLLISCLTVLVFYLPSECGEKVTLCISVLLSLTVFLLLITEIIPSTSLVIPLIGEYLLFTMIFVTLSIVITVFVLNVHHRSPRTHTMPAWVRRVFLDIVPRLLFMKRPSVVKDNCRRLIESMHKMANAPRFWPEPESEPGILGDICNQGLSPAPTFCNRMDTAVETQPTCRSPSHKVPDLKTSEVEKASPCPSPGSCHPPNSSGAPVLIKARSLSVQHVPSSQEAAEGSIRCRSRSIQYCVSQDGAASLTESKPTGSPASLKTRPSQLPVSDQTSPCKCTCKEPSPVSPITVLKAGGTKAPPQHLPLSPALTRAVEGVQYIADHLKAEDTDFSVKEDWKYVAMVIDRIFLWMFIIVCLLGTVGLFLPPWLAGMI
T1 sequence (Q9ERK7 26-501): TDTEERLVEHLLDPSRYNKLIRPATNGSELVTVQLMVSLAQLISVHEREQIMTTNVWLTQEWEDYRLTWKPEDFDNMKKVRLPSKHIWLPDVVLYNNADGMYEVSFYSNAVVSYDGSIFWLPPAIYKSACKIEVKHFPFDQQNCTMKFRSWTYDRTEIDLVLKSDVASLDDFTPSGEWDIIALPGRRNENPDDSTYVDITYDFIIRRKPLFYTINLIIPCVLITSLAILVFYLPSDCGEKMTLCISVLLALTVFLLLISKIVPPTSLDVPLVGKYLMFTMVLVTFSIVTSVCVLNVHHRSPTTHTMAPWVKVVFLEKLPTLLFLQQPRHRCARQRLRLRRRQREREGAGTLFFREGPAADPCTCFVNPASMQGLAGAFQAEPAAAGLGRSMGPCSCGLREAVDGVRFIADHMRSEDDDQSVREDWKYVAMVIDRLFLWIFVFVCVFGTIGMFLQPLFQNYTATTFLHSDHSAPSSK
T2 sequence (O70174 31-629): as the sequence (O70174 31-629) above
T2 sequence (Q9ERK7 26-501 V287L): as the sequence (Q9ERK7 26-501) above, with V262L counted along it
Chain of WT α4β2 nAChRs (O70174 31-629): as the sequence (O70174 31-629) above
Chain of WT α4β2 nAChRs (Q9ERK7 26-501): as the sequence (Q9ERK7 26-501) above
Chain of α4β2 receptors (O70174 31-629): as the sequence (O70174 31-629) above
Chain of α4β2 receptors (Q9ERK7 26-501): as the sequence (Q9ERK7 26-501) above
Chain of α4 S248F β2 nAChR (O70174 31-629 S282F): as the sequence (O70174 31-629) above, with S252F counted along it
Chain of α4 S248F β2 nAChR (Q9ERK7 26-501): as the sequence (Q9ERK7 26-501) above

For `CN1CCCC1c1cccnc1` (centres unmarked) [Nicotine, nicotine], the “Percent of (α4)3(β2)2 for WT nAChRs, FIR” value (α4β2 nAChRs [1]) was 73%, the “Shift of WT receptor stoichiometry on incubation in nicotine” value (WT α4β2 nAChRs; 1:1 cDNA α4XFP:β2 or α4:β2XFP, nicotine 1 μM) was “shifts the receptor population toward the (α4)2(β2)3 stoichiometry” and the “Percent of (α4)3(β2)2 for WT nAChRs, FRET” value (WT α4β2 nAChRs; α4:β2 cDNA ratio 1:1, exposed to nicotine, N2a cells) was 61 ± 6%. For the same molecule, the “FRET efficiency of nicotine-treated versus unexposed cells” value (α4β2 V287L nAChR [2]; cells transfected with α4XFP β2 V287L) was “lower FRET efficiency”, the “FRET efficiency after incubation in nicotine compared to control cells” value (α4β2 V287L nAChR [2]; cells transfected with α4 and β2 V287L XFP subunits) was “significantly higher” and the “Shift in stoichiometry in the presence of nicotine” value (α4β2 V287L nAChR [2]; β2 V287L ADNFLE mutation) was “shift in stoichiometry towards (α4)2(β2)3”. The “Shift of receptor population stoichiometry” value (α4 S248F β2 nAChR) was “shifted the population toward the (α4)2(β2)3 stoichiometry”, the “α4 intersubunit FRET efficiency” value (α4β2 V287L nAChR [3]; α4XFP plus β2V287L) was “completely back to WT levels” and the “Mean β2 intersubunit FRET efficiency” value (α4β2 V287L nAChR [3]; α4 plus β2(V287L)XFP) was “increased to a level even higher than the control cells”. For the same molecule, the “Percentage of (α4)3(β2)2 ADNFLE receptors after nicotine incubation relative to saline incubation” value (ADNFLE α4β2 receptors; at least five experiments) was 0.8, the “Ratio nicotine/saline of percentage of (α4)3(β2)2 ADNFLE receptors, all cases” value (ADNFLE α4β2 receptors; each of at least five experiments) was under 1 and the “Receptor population in the Golgi” value (α4β2 nAChRs [4]; trans-Golgi ROI (GalT-CFP), 1 μM nicotine, 4 h post-exposure) was “pure (α4)2(β2)3 receptor population”. The “Duration of the stoichiometry switch post nicotine exposure” value (α4β2 nAChRs [4]; whole cell NFRET) was “at least 24 h”, the “Receptor population expressing the high-sensitivity (α4)2(β2)3 stoichiometry” value (α4β2 nAChRs [4]; whole cell NFRET distribution, 4 h exposure to a saturating dose (1 μM) of nicotine) was 80% and the “Upregulation at the plasma membrane by TIRFM” value (α4β2 receptors; 4 h of 1 μM nicotine exposure) was “sufficient to cause upregulation at the plasma membrane”. The “α4GFP fluorescence in TIRF images” value (α4β2 receptors; incubation for 48 h in nicotine, α4GFP plus unlabeled β2) was “much brighter” and the “Percent of (α4)3(β2)2 for WT nAChRs, Reported” value (α4β2 nAChRs [5]) was 68 ± 5%.
